Experimental findings from patent US12479843B2, “Spiro ring-containing quinazoline compounds” (WIGEN BIOMEDICINE TECHNOLOGY (SHANGHAI) CO., LTD., priority 2019, dated 2025) are described below.

Broadly, the IC50 is the concentration at which inhibition is half-maximal. By inhibition is commonly meant the share of the control response that was lost under treatment.

The test system of one assay is H358 cells. Put plainly: Antiproliferative activity against H358 cells (Cell Titer Glow, ultra-low attachment plate). The format is cell-based. Conditions: Homo sapiens, NCI-H358, 72 h, 96-well ultra-low attachment plate, three days after addition of compound, Cell Titer Glow. As for the experimental part:
2500 H358 cells were seeded in a 96-well ultra-low attachment plate (corning, 7007). After one day of growth, a serially diluted compound (a maximum concentration of 5 μM, 5-fold dilution, a total of five doses) was added. Three days after the addition of the compound, Cell Titer Glow (Promega, G9681) was added to evaluate pellet growth, and the IC50 value was calculated.
(In general: In ATP-based viability assays light output follows the ATP content of the culture.)

The test system of the next assay is pERK level in H358 cells. Put plainly: pERK and ERK protein content assay in H358 cells (ELISA). As to conditions: Homo sapiens, NCI-H358, compound 1 μM, 24 h, pERK/ERK ratio compared with DMSO group, read-out: Inhibition rate (%) of pERK level. The format is cell-based. In a few lines:
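Percent inhibition of pERK relative to DMSO, from the ELISA pERK/ERK ratio in lysed H358 cells. Compound applied at 1 μM for 24 h after one day of growth.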

`C=CC(=O)N1CC2(CCN(c3nc(N4CC(N5CCC(F)(F)CC5)C4)nc4c(OCC(F)(F)F)c(-c5c(C)ccc6[nH]ncc56)c(C5CC5)cc34)CC2)C1` [Compound 180] registered an IC50 with H358 cells of 300 to 1000 nM. Moreover, the inhibition at 1 µM with pERK level in H358 cells is > 90%.
For the compound `C=CC(=O)N1CC2(CCN(c3nc(N4CC[C@H](N5CCC5)C4)nc4c(OCC(F)(F)F)c(-c5c(C)ccc6[nH]ncc56)c(C5CC5)cc34)CC2)C1` [Compound 181], the IC50 with H358 cells is < 300 nM. For the same compound, in the assay with pERK level in H358 cells, the inhibition at 1 µM is > 90%.
The corresponding values for `C=CC(=O)N1CC2(CCN(c3nc(N4CC[C@@H](N5CCC5)C4)nc4c(OCC(F)(F)F)c(-c5c(C)ccc6[nH]ncc56)c(C5CC5)cc34)CC2)C1` [Compound 182] are < 300 nM and > 90%.
Taken in the same sequence, the figures for `C=CC(=O)N1CC2(CCN(c3nc(N4CC[C@H](N5CCCC5)C4)nc4c(OCC(F)(F)F)c(-c5c(C)ccc6[nH]ncc56)c(C5CC5)cc34)CC2)C1` [Compound 183] were < 300 nM and > 90%.
The corresponding values for `C=CC(=O)N1CC2(CCN(c3nc(N4CC[C@@H](N5CCCC5)C4)nc4c(OCC(F)(F)F)c(-c5c(C)ccc6[nH]ncc56)c(C5CC5)cc34)CC2)C1` [Compound 184] are < 300 nM and > 90%.
With `C=CC(=O)N1CC2(CCN(c3nc(N4CC[C@H](N(C)C)C4)nc4c(OCC(F)(F)F)c(-c5c(C)ccc6[nH]ncc56)c(C5CC5)cc34)CC2)C1` [Compound 185], the IC50 with H358 cells was < 300 nM. Moreover, in the assay on pERK level in H358 cells, the inhibition at 1 µM was > 90%.
Regarding `C=CC(=O)N1CC2(CCN(c3nc(N4CC[C@@H](N(C)C)C4)nc4c(OCC(F)(F)F)c(-c5c(C)ccc6[nH]ncc56)c(C5CC5)cc34)CC2)C1` [Compound 186], in the assay with H358 cells, the IC50 was < 300 nM. For the same compound, the inhibition at 1 µM in the assay with pERK level in H358 cells was > 90%.
Taken in the same sequence, the figures for `C=CC(=O)N1CC2(CCN(c3nc(N4CC[C@H](N(C)CC)C4)nc4c(OCC(F)(F)F)c(-c5c(C)ccc6[nH]ncc56)c(C5CC5)cc34)CC2)C1` [Compound 187] were < 300 nM and > 90%.
The corresponding values for `C=CC(=O)N1CC2(CCN(c3nc(N4CC[C@@H](N(C)CC)C4)nc4c(OCC(F)(F)F)c(-c5c(C)ccc6[nH]ncc56)c(C5CC5)cc34)CC2)C1` [Compound 188] are < 300 nM and > 90%.
Taken in the same sequence, the figures for `C=CC(=O)N1CC2(CCN(c3nc(N4CC[C@H](N(CC)CC)C4)nc4c(OCC(F)(F)F)c(-c5c(C)ccc6[nH]ncc56)c(C5CC5)cc34)CC2)C1` [Compound 189] were < 300 nM and > 90%.
Consider `C=CC(=O)N1CC2(CCN(c3nc(N4CC[C@@H](N(CC)CC)C4)nc4c(OCC(F)(F)F)c(-c5c(C)ccc6[nH]ncc56)c(C5CC5)cc34)CC2)C1` [Compound 190], for which the IC50 in the assay on H358 cells is < 300 nM. Also, the inhibition at 1 µM with pERK level in H358 cells was > 90%.
Turning to `C=CC(=O)N1CC2(CCN(c3nc(N4CC[C@H](N5CC[C@H](F)C5)C4)nc4c(OCC(F)(F)F)c(-c5c(C)ccc6[nH]ncc56)c(C5CC5)cc34)CC2)C1` [Compound 191], the IC50 in the assay on H358 cells was < 300 nM. In the assay with pERK level in H358 cells, the inhibition at 1 µM is > 90%.
The corresponding values for `C=CC(=O)N1CC2(CCN(c3nc(N4CC[C@@H](N5CC[C@H](F)C5)C4)nc4c(OCC(F)(F)F)c(-c5c(C)ccc6[nH]ncc56)c(C5CC5)cc34)CC2)C1` [Compound 192] are < 300 nM and > 90%.
The corresponding values for `C=CC(=O)N1CC2(CCN(c3nc(N4CC[C@H](N5CC[C@@H](F)C5)C4)nc4c(OCC(F)(F)F)c(-c5c(C)ccc6[nH]ncc56)c(C5CC5)cc34)CC2)C1` [Compound 193] are < 300 nM and > 90%.
Taken in the same sequence, the figures for `C=CC(=O)N1CC2(CCN(c3nc(N4CC[C@@H](N5CC[C@@H](F)C5)C4)nc4c(OCC(F)(F)F)c(-c5c(C)ccc6[nH]ncc56)c(C5CC5)cc34)CC2)C1` [Compound 194] were < 300 nM and > 90%.
On to `C=CC(=O)N1CC2(CCN(c3nc(N4CC[C@H](N5CC[C@H](OC)C5)C4)nc4c(OCC(F)(F)F)c(-c5c(C)ccc6[nH]ncc56)c(C5CC5)cc34)CC2)C1` [Compound 195], for which, in the assay with H358 cells, the IC50 is < 300 nM. Also, the inhibition at 1 µM with pERK level in H358 cells was > 90%.
The corresponding values for `C=CC(=O)N1CC2(CCN(c3nc(N4CC[C@@H](N5CC[C@H](OC)C5)C4)nc4c(OCC(F)(F)F)c(-c5c(C)ccc6[nH]ncc56)c(C5CC5)cc34)CC2)C1` [Compound 196] are < 300 nM and > 90%.
Turning to `C=CC(=O)N1CC2(CCN(c3nc(N4CC[C@H](N5CC[C@@H](OC)C5)C4)nc4c(OCC(F)(F)F)c(-c5c(C)ccc6[nH]ncc56)c(C5CC5)cc34)CC2)C1` [Compound 197], the IC50 with H358 cells is < 300 nM. The inhibition at 1 µM in the assay on pERK level in H358 cells is > 90%.
On to `C=CC(=O)N1CC2(CCN(c3nc(N4CC[C@@H](N5CC[C@@H](OC)C5)C4)nc4c(OCC(F)(F)F)c(-c5c(C)ccc6[nH]ncc56)c(C5CC5)cc34)CC2)C1` [Compound 198], for which, in the assay with H358 cells, the IC50 was < 300 nM. Besides, in the assay with pERK level in H358 cells, the inhibition at 1 µM was > 90%.
In turn, `C=CC(=O)N1CC2(CCN(c3nc(N4CC[C@H](N5CCC(F)(F)C5)C4)nc4c(OCC(F)(F)F)c(-c5c(C)ccc6[nH]ncc56)c(C5CC5)cc34)CC2)C1` [Compound 199] returned an IC50 in the assay with H358 cells of 300 to 1000 nM. Also, the inhibition at 1 µM with pERK level in H358 cells was > 90%.
The corresponding values for `C=CC(=O)N1CC2(CCN(c3nc(N4CC[C@@H](N5CC(F)C5)C4)nc4c(OCC(F)(F)F)c(-c5c(C)ccc6[nH]ncc56)c(C5CC5)cc34)CC2)C1` [Compound 202] are < 300 nM and > 90%.
The corresponding values for `C=CC(=O)N1CC2(CCN(c3nc(N4CC[C@@H](N5CC(OC)C5)C4)nc4c(OCC(F)(F)F)c(-c5c(C)ccc6[nH]ncc56)c(C5CC5)cc34)CC2)C1` [Compound 204] are 300 to 1000 nM and > 90%.
Take `C=CC(=O)N1CC2(CCN(c3nc(N4CC[C@H](N5CC(F)(F)C5)C4)nc4c(OCC(F)(F)F)c(-c5c(C)ccc6[nH]ncc56)c(C5CC5)cc34)CC2)C1` [Compound 205]: in the assay on H358 cells, the IC50 lay in the range of 300 to 1000 nM. Besides, the inhibition at 1 µM in the assay on pERK level in H358 cells was 50 to 90%.
The corresponding values for `C=CC(=O)N1CC2(CCN(c3nc(N4CC[C@@H](N5CC(F)(F)C5)C4)nc4c(OCC(F)(F)F)c(-c5c(C)ccc6[nH]ncc56)c(C5CC5)cc34)CC2)C1` [Compound 206] are 300 to 1000 nM and 50 to 90%.
Regarding `C=CC(=O)N1CC2(CCN(c3nc(N4CC[C@H](N5CCCCC5)C4)nc4c(OCC(F)(F)F)c(-c5c(C)ccc6[nH]ncc56)c(C5CC5)cc34)CC2)C1` [Compound 207], the 50% inhibitory concentration (IC50) in the assay with H358 cells was < 300 nM. Besides, in the assay with pERK level in H358 cells, the inhibition at 1 µM was > 90%.
`C=CC(=O)N1CC2(CCN(c3nc(N4CC[C@@H](N5CCCCC5)C4)nc4c(OCC(F)(F)F)c(-c5c(C)ccc6[nH]ncc56)c(C5CC5)cc34)CC2)C1` [Compound 208]: the IC50 in the assay with H358 cells was < 300 nM. Further, the inhibition at 1 µM in the assay on pERK level in H358 cells was > 90%.
The corresponding values for `C=CC(=O)N1CC2(CCN(c3nc(N4CC[C@H](N5CCOCC5)C4)nc4c(OCC(F)(F)F)c(-c5c(C)ccc6[nH]ncc56)c(C5CC5)cc34)CC2)C1` [Compound 209] are < 300 nM and > 90%.
On to `C=CC(=O)N1CC2(CCN(c3nc(N4CC[C@@H](N5CCOCC5)C4)nc4c(OCC(F)(F)F)c(-c5c(C)ccc6[nH]ncc56)c(C5CC5)cc34)CC2)C1` [Compound 210], for which the IC50 in the assay on H358 cells was < 300 nM. For the same compound, the inhibition at 1 µM in the assay on pERK level in H358 cells was > 90%.
